Data published in US9241491B2, “Aerosol” (SABAN VENTURES PTY LIMITED, priority 2005, dated 2016).

Key:
[1] = Maximum peroxide concentration (peroxide density) in gas phase; assay type: physicochemical; details: for maximum achievable concentration for vapour systems: no evacuation; for Max. peroxide vapour concentration: initial 35% H2O2 solution
Spore strips = details: atmospheric pressure, below 80° C.; could not be achieved in less; cited from earlier work

With `OO` [hydrogen peroxide vapour, hydrogen peroxide] the “maximum achievable concentration for vapour systems” value ([1]; 0% humidity) was 2.0 mg/L, the “maximum achievable concentration for vapour systems” value ([1]; 25° C., 40% RH) was 0.9 mg/L and the “Max. peroxide vapour concentration” value ([1]; 20 ° C., 10% RH) was 0.97 mg/L. The “Max. peroxide vapour concentration” value ([1]; 20 ° C., 20% RH) was 0.85 mg/L, the “Max. peroxide vapour concentration” value ([1]; 20 ° C., 40% RH) was 0.62 mg/L and the “Max. peroxide vapour concentration” value ([1]; 20 ° C., 80% RH) was 0.14 mg/L. For the same compound, the “Max. peroxide vapour concentration” value ([1]; 40 ° C., 10% RH) was 4.13 mg/L, the “Max. peroxide vapour concentration” value ([1]; 40 ° C., 20% RH) was 2.59 mg/L and the “Max. peroxide vapour concentration” value ([1]; 40 ° C., 40% RH) was 2.66 mg/L. For the same compound, the “Max. peroxide vapour concentration” value ([1]; 40 ° C., 80% RH) was 0.63 mg/L, the “Max. peroxide vapour concentration” value ([1]; 60 ° C., 10% RH) was 14.4 mg/L and the “Max. peroxide vapour concentration” value ([1]; 60 ° C., 20% RH) was 12.60 mg/L. The “Max. peroxide vapour concentration” value ([1]; 60 ° C., 40% RH) was 9.1 mg/L, the “Max. peroxide vapour concentration” value ([1]; 60 ° C., 80% RH) was 2.31 mg/L and the time to sterilization (Spore strips) was ≥ 6 h.
